Test results from ChEMBL document CHEMBL1833836, “Synthesis and evaluation of phosphoramidate and phosphorothioamidate analogues of amiprophos methyl as potential antimalarial agents” (Bioorg Med Chem Lett, 2011).
Calls of active or inactive are those of the source. The rule behind the calls is not given here.

Tests used:
[1] = test system: Plasmodium falciparum; assay: Antimalarial activity against Plasmodium falciparum 3D7 infected in O-positive human erythrocytes assessed as inhibition of parasite lactate dehydrogenase after 72 hrs by pLDH method; assay type: functional, organism-based; settings: 3D7, 72 h
[2] = test system: Plasmodium falciparum; assay: Ratio of compound IC50 to APM IC50 for Plasmodium falciparum 3D7; assay type: functional
[3] = test system: Cryptosporidium parvum; assay: Antimicrobial activity against Cryptosporidium parvum infected in HCT8 cells assessed as parasite count after 72 to 120 hrs; assay type: functional, organism-based; settings: HCT-8
[4] = test system: Plasmodium falciparum; assay: Antimicrobial activity against Plasmodium falciparum; assay type: functional, organism-based
[5] = test system: Plasmodium falciparum; assay: Antimicrobial activity against Plasmodium falciparum up to 128 uM; assay type: functional, organism-based

Compound: CCCNP(=O)(OCC)Oc1ccc(C)cc1[N+](=O)[O-] (stereo unspecified)
- IC50 [1]: > 128 µM
- Ratio IC50 [2]: 20

Compound: CCOP(N)(=O)Oc1ccc(C(F)(F)F)cc1 (stereo unspecified)
- IC50 [1]: 79 µM
- Ratio IC50 [2]: 20

Compound: CCOP(=O)(NC1CCC1)Oc1ccc(C(F)(F)F)cc1 (stereo unspecified)
- IC50 [1]: 45 µM
- Ratio IC50 [2]: 20

Compound: CCOP(=O)(NC(C)C)Oc1ccc2ccccc2c1[N+](=O)[O-] (stereo unspecified)
- IC50 [1]: 87 µM
- Ratio IC50 [2]: 20

Compound: CCOP(=O)(NC(C)C)Oc1ccc(C(F)(F)F)cc1 (stereo unspecified)
- IC50 [1]: 50 µM
- Ratio IC50 [2]: 20

Compound: CCOP(NC1CCCC1)Oc1ccc(Br)cc1 (stereo unspecified)
- IC50 [1]: 128 µM

Compound: CCOP(=O)(Oc1ccc(C(F)(F)F)cc1)N1CCCC1 (stereo unspecified)
- IC50 [1]: 56 µM
- Ratio IC50 [2]: 20

Compound: CCCCNP(=O)(OCC)Oc1ccc(C(F)(F)F)cc1 (stereo unspecified)
- IC50 [1]: 32 µM
- Ratio IC50 [2]: 20

Compound: CCCCNP(=O)(OCC)Oc1ccc(C)cc1[N+](=O)[O-] (stereo unspecified)
- IC50 [1]: 28 µM
- Ratio IC50 [2]: 20

Compound: CCOP(=O)(NC(C)C)Oc1ccc(C)cc1OC (stereo unspecified)
- IC50 [1]: 128 µM
- Ratio IC50 [2]: 20

Compound: CCOP(=O)(NC(C)C)Oc1cccc(C(F)(F)F)c1 (stereo unspecified)
- IC50 [1]: 50 µM
- Ratio IC50 [2]: 20

Compound: CCCN(CCC)c1c([N+](=O)[O-])cc(C(F)(F)F)cc1[N+](=O)[O-] [TRIFLURALIN]
- IC50 [3]: 750 nM
- IC50 [4]: 2900 nM

Compound: CCOP(=O)(Oc1ccc(C(F)(F)F)cc1)N(CC)CC (stereo unspecified)
- IC50 [1]: 48 µM
- Ratio IC50 [2]: 20

Compound: CCOP(=O)(Oc1ccc(C(F)(F)F)cc1)N1CCCCC1 (stereo unspecified)
- IC50 [1]: 84 µM
- Ratio IC50 [2]: 20

Compound: CCOP(=S)(NC1CCCC1)Oc1ccc([N+](=O)[O-])cc1C (stereo unspecified)
- IC50 [1]: 1.6 µM

Compound: CCCCCCCNP(=O)(OCC)Oc1ccc(C(F)(F)F)cc1 (stereo unspecified)
- IC50 [1]: 44 µM
- Ratio IC50 [2]: 20

Compound: CCOP(=O)(NC(C)C)Oc1ccc(C)cc1Br (stereo unspecified)
- IC50 [1]: 39 µM
- Ratio IC50 [2]: 20

Compound: CCOP(=O)(NC1CCCC1)Oc1ccc(C(F)(F)F)cc1 (stereo unspecified)
- IC50 [1]: 26 µM
- Ratio IC50 [2]: 20

Compound: CCCN(CCC)c1c([N+](=O)[O-])cc(S(N)(=O)=O)cc1[N+](=O)[O-] [ORYZALIN]
- IC50 [3]: 800 nM

Compound: CCOP(=O)(NCC(C)C)Oc1ccc(C)cc1[N+](=O)[O-] (stereo unspecified)
- IC50 [1]: 75 µM
- Ratio IC50 [2]: 20

Compound: CCOP(=O)(NCC(C)C)Oc1ccc(C(F)(F)F)cc1 (racemic)
- IC50 [1]: 40 µM
- Ratio IC50 [2]: 20

Compound: CCOP(=O)(Oc1ccc(C(F)(F)F)cc1)N1CCOCC1 (stereo unspecified)
- IC50 [1]: 98 µM
- Ratio IC50 [2]: 20

Compound: CCCCCNP(=O)(OCC)Oc1ccc(C)cc1[N+](=O)[O-] (stereo unspecified)
- IC50 [1]: 51 µM
- Ratio IC50 [2]: 20

Compound: CCOP(=O)(NC(C)C)Oc1ccc([N+](=O)[O-])c(C)c1 (stereo unspecified)
- IC50 [1]: 79 µM
- Ratio IC50 [2]: 20

Compound: CCOP(=O)(NC(C)C)Oc1ccccc1C(F)(F)F (stereo unspecified)
- IC50 [1]: 87 µM
- Ratio IC50 [2]: 20

Compound: CC(C)OC(=O)Nc1cccc(Cl)c1
- inhibition [5]: inactive

Compound: CCOP(=S)(NC1CCCC1)Oc1ccc(C(F)(F)F)cc1 (stereo unspecified)
- IC50 [1]: 8.6 µM
- Ratio IC50 [2]: 20

Compound: CCCNP(=O)(OCC)Oc1cc(C)ccc1[N+](=O)[O-] (stereo unspecified)
- IC50 [1]: 102 µM
- Ratio IC50 [2]: 20

Compound: CCOP(=O)(NCC(C)C)Oc1cc(C)ccc1[N+](=O)[O-] (stereo unspecified)
- IC50 [1]: > 128 µM
- Ratio IC50 [2]: 20

Compound: CCN(CC)CCN(CC)c1c([N+](=O)[O-])cc([N+](=O)[O-])cc1C(F)(F)F
- IC50 [4]: 440 nM

Compound: O=[N+]([O-])c1cc([N+](=O)[O-])c(N2CCC(N3CCCC3)CC2)c(C(F)(F)F)c1
- IC50 [4]: 440 nM

Compound: COP(=S)(NC(C)C)Oc1ccc(C)cc1[N+](=O)[O-] (stereo unspecified) [AMIPROPHOS METHYL]
- IC50 [1]: 4 µM

Compound: CCOP(=O)(NC(C)C)Oc1ccc([N+](=O)[O-])cc1C (stereo unspecified)
- IC50 [1]: 128 µM
- Ratio IC50 [2]: 20

Compound: CCCCCNP(=S)(OCC)Oc1ccc(C(F)(F)F)cc1 (stereo unspecified)
- IC50 [1]: 4.5 µM

Compound: CCOP(=O)(NC(C)C)Oc1ccccc1 (stereo unspecified)
- IC50 [1]: > 128 µM
- Ratio IC50 [2]: 20

Compound: CCOP(=O)(NC(C)C)Oc1ccc2ccccc2c1 (stereo unspecified)
- IC50 [1]: 72 µM
- Ratio IC50 [2]: 20

Compound: CCOP(=O)(NC1CCCC1)Oc1ccc(Br)cc1 (stereo unspecified)
- IC50 [1]: 17 µM
- Ratio IC50 [2]: 20

Compound: CCOP(=O)(NC(C)C)Oc1cc([N+](=O)[O-])ccc1C (stereo unspecified)
- IC50 [1]: 128 µM
- Ratio IC50 [2]: 20

Compound: CCOP(=S)(NC1CCCC1)Oc1ccc(Br)cc1 (stereo unspecified)
- IC50 [1]: 23 µM

Compound: CCOP(=O)(NC(C)C)Oc1cccc([N+](=O)[O-])c1C (stereo unspecified)
- IC50 [1]: 128 µM
- Ratio IC50 [2]: 20

Compound: CCOP(=O)(NC(C)C)Oc1ccc(C)cc1C#N (stereo unspecified)
- IC50 [1]: 128 µM
- Ratio IC50 [2]: 20

Compound: CCOP(=O)(Nc1ccc(C)cc1Cl)Oc1ccc(C)cc1Cl (stereo unspecified)
- IC50 [1]: 102 µM
- Ratio IC50 [2]: 20

Compound: CCOP(=O)(NC1CCCCC1)Oc1ccc(C(F)(F)F)cc1 (stereo unspecified)
- IC50 [1]: 43 µM
- Ratio IC50 [2]: 20

Compound: CCCCCNP(=S)(OCC)Oc1ccc([N+](=O)[O-])cc1C (stereo unspecified)
- IC50 [1]: 6.9 µM

Compound: CCOP(=O)(NC(C)C)Oc1ccc(C)cc1[N+](=O)[O-] (stereo unspecified)
- IC50 [1]: 126 µM
- Ratio IC50 [2]: 20

Compound: CCOP(=O)(NC(C)C)Oc1ccc(C)cc1Cl (stereo unspecified)
- IC50 [1]: 39 µM
- Ratio IC50 [2]: 20

Compound: CCOP(=O)(NC(C)C)Oc1cc(C)ccc1[N+](=O)[O-] (stereo unspecified)
- IC50 [1]: > 128 µM
- Ratio IC50 [2]: 20

Compound: CCOP(=O)(NC1CCCC1)Oc1ccc(C)cc1[N+](=O)[O-] (stereo unspecified)
- IC50 [1]: 47 µM
- Ratio IC50 [2]: 20
